Where a SMILES comes first, the peptide text is derived from it. Bridges are numbered along the chain shown (N, C = ends). [ ]: non-standard residue; d: D form. The star is where a group is joined. Ileψ(thiazoline)Cys = CC[C@H](C)[C@H](N)C1=N[C@H](C(=O)*)CS1; dOrn = NCCC[C@@H](N)C(=O)O
How the values were obtained:
[1] = system: SARS-CoV-2; assay: SARS-CoV-2 Cytopathic Effect (CPE) reduction assay in Vero E6 cells; format: cell-based; conditions: Severe acute respiratory syndrome coronavirus 2, Vero C1008, 72 h
[2] = system: pigs with dermatome wounds; assay: Pig dermatome wound healing model; format: in vivo; conditions: dermatome wounds 40×40 mm at a depth of 0.76 mm, topical treatment
Method: In a first assessment in a pig model setting, using a dermatome, six wounds were made on each pig with three on the left side and three on the right side of each pig covering a surface area of 40×40 mm at a depth of 0.76 mm. […] For each pig, the wounds on the left of the animal were treated while the wounds on the right wide were left as untreated controls. […] Standard of care was advised on by veterinarians with experience in dealing with wound management in a farm setting.

Structure (SMILES)	EC50 [1]	wound healing [2]
CCC(CC)COC(=O)[C@H](C)N[P@](=O)(OC[C@H]1O[C@@](C#N)(c2ccc3c(N)ncnn23)[C@H](O)[C@@H]1O)Oc1ccccc1 [Remdesivir, reference compound]	4.5 µM	–
CC[C@H](C)[C@H](N)C1=N[C@H](C(=O)N[C@@H](CC(C)C)C(=O)N[C@H](CCC(=O)O)C(=O)N[C@H](C(=O)N[C@H]2CCCCNC(=O)[C@H](CC(N)=O)NC(=O)[C@@H](CC(=O)O)NC(=O)[C@H](Cc3cnc[nH]3)NC(=O)[C@@H](Cc3ccccc3)NC(=O)[C@H]([C@@H](C)CC)NC(=O)[C@@H](CCCN)NC2=O)[C@@H](C)CC)CS1 [bacitracin, reference compound] ({Ileψ(thiazoline)Cys}-L[dE]IK[dOrn]I[dF]H[dD]N; lactam 4-C)	–	treated wounds were still open after one week
